This note sets out measurements from US20230270692A1, “COMPOUNDS FOR CHRONIC DISORDERS” (Pillai Universal LLC, priority 2020, published 2023).

The subject of series [1] is Pancreatic adenocarcinoma cells (PANC). Nature of the series: MTT cell viability of pancreatic cancer cells. The class given is cell-based, Human. The method, then:
The synthesized compounds of Formula 1-4 were evaluated for cell proliferation, apoptosis, cell cycle arrest, the generation of reactive oxygen species and calcium were measured using MTT assay and flow cytometry, respectively. The expression of apoptosis- and proliferation-related proteins was determined by western blotting. The effect of molecules on apoptosis-related mRNA expression in cancer cells was detected by RT-PCR.
Changes in cell morphology were detected by the presence of cell membrane blebbing, chromatin condensation, and formation of apoptotic bodies (FIG. 10A).

Series [2] deals with histone H3 acetylation, acetyl-α-tubulin. Nature of the series: Histone H3 / α-tubulin acetylation western blot in PANC cells. Format: cell-based, Human. The method, then: Class I HDAC expression during pancreatic tumorigenesis was next examined. Briefly different concentration of Compound I were added and incubated for 24 h. […] Inhibition of Class I HDACs is associated with the upregulation of histone H3 acetylation and p21 mRNA and protein expression which have associated with the anti-proliferative activity. It has also been reported that HDAC6 functions as a α-tubulin deacetylase, modulating tubulin stability. Because α-tubulin and histone H3 are mutual downstream targets of HDACs, the relationship between protein expression and function of molecules was further examined. The effects of Compound I on histone H3 acetylation in PANC cells using western blot analysis was studied.
On the technique in general: In western blotting, separated proteins are transferred to a membrane and probed.

For a further series, the system named is cancer stem cells. Description: Cancer stem cell marker expression. Format: cell-based. The source says:
CSCs have significant impact on the tumor progression, drug resistance, recurrence and metastasis in different types of malignancies. Conventional cancer chemotherapy often fails as most anti-cancer drugs are not effective against drug-resistant CSCs. These surviving CSCs lead to relapse and metastasis. Most studies report that conventional therapeutic agents have limited access to the CSCs due to their hypoxic microenvironment and distant location from the vasculature that retards the efficacy of anti-CSC drugs (FIG. 14). However, the disclosed compounds may overcome this limitation and may penetrate into a deeper location and destroy CSCs. Accordingly, in embodiments, the present invention provides a method of inhibiting cancer stem cell survival and/or self-renewal comprising administering to a cancer stem cell an effective amount of a compound disclosed herein, e.g., Compound I (FIG. 13).
The compounds of the disclosure inhibited the expression of the genes in the follow cancers (FIG. 18): • Breast: CD44+CD24−/low Lineage−, ALDH-1high • Liver: CD133+, CD49f+, CD90+ • Colon: CD133+, CD44+, CD166+, EpCAM+, CD24+ • Pancreatic: CD133+, CD44+, EpCAM+, CD24+ • Leukemia: CD34+CD38− • Lungs: CD133+, ABCG2^High • Leukemia: CD34+, CD38−, HLA−, DR−, CD71−, CD90−, CD117−, CD123+
Reduction of stem cell surface marker expressions are seen within 1 hour and up to a maximum of […]. […]

The subject of another series is lung cancer stem cells. Description: Targeting lung cancer stem cells. The source says:
Compound I is orally bioavailable, multi-tyrosine-kinase inhibitor with 120 target proteins that induces apoptosis and suppresses the invasiveness of lung cancer stem cells with no toxicity to normal cells. There were no signs of discomfort or any cardiovascular or respiratory disorders observed in animals after the administration throughout the study period.

A short description of series [3]: Cytotoxicity in Calu-3 cells. The conditions noted are these: human, Calu-3 lung epithelial cells, read-out: 50% cytotoxic concentration (CC50). Format: cell-based. The method, then:
The antiviral activity of Compound I was assessed against SARS-CoV-2 in Calu-3 cultures. […] To determine if Compound I could inhibit replication, we first evaluated antiviral activity and cytotoxicity in the continuous human lung epithelial cell line Calu-3 cells.

The nature of series [4]: Pharmacokinetics and tissue distribution in nude mouse. Format: in vivo. Here is the method: The pharmacokinetics and toxicity of Compound I was studied in vivo in a nude mouse model.
Tissue-to-plasma ratios were taken of Compound I in animals at 1, 2, 4, 24 h after administration. At 60 min, the highest levels of Compound I were found in the lungs, brain, stomach, liver, mammary gland, and small intestine, all of which are highly perfused organs followed by spleen and heart. Up to 72 h, Compound I was detected in most organs, but not in the femur and kidney. The ratios in most organs continued to increase up to 4 h. […] There was no change in body weight monitored for a 7-day period after drug administrations.
As explained above, a pharmacokinetic study investigated the concentrations of Compound I at different time intervals after either oral administration or intravenous injection. […] In the gastrointestinal tract, a significant amount of Compound I accumulated in the stomach, implying that Compound I may be absorbed through stomach tissue and distributed throughout the body. […] Collectively, our current findings will provide a more complete understanding of the biological actions of Compound I in vivo.

A short description of series [5]: Acute oral toxicity (OECD 423). Format: in vivo. The method, then:
Experimental Design: The assay of acute toxicity was performed according to the Organization for Economic Cooperation and Development (OECD) guideline 423 (OECD, 2001a). A total of 60 mice weighing between 27 and 37 g were randomly divided into six experimental groups of 10 mice each (5 males and 5 females per group). After fasting overnight Compound I was administered to each treatment group at single doses of 200, 500 1000, 2000, mg/kg, respectively, by oral gavage. The control groups were treated with the same volume of distilled water. After dosing, all animals were observed individually for mortality and changes in general behavior during the first 30 min, then at 2, 4, 6, 10 and 24 h following treatment. Symptoms of toxicity such as hypo-activity, piloerection, breathing difficulty, tremors, and convulsion were evaluated after administration of the various doses. The LD 50 value was determined according to the method described by the OECD Guidelines 423 (OECD, 2001a). During the remaining experimental period, the animal observation was performed at least once per day for the post-dosing period of 14 days. Body weights were measured at the initiation of treatment, and on days 4, 7, 11 and 14 after administration. On the 14th day, the mice were sacrificed under anesthesia, and vital organs (heart, kidneys, lung, spleen and liver) were removed for macroscopic examination.

A short description of the next series: in vitro. The following applies: African green monkey.
Setting [6] is: treatment group compared to control group.

For orientation: IC50 means the point on the concentration scale where inhibition reaches its midpoint. What is called LD50 is the dose at which mortality reaches 50%.

Converted amounts (≈) assume the structure as drawn.

Regarding `COc1cc(/C=C/C(=O)/C=C/C=C/c2cc(OC)c(O)c(OC)c2)cc(OC)c1` [Compound I], in series [1] (24 and 48 h, 1-100 μg/mL), the cell viability entry was “decreased significantly in time- and dose-dependent manners”. Further, the cytotoxicity at 10 µg/mL in series [1] (Homo sapiens, Pancreatic cancer cell, read-out: decrease in viable cells) is ~65.5%. Further, 5.74 ± 0.02 µg/mL (≈ 14.5 µM) corresponded to half-maximal inhibition in series [1] (Homo sapiens, Pancreatic cancer cell, PANC cells, after 24 hours of exposure) (IC50). Moreover, the acetyl-α-tubulin result in series [2] is listed as “no acetyl-α-tubulin was detected”. Further, the “histone H3 acetylation” value in series [2] (compared with control) is given as “stronger hyperacetylation”. The “cancer stem cell markers / gene expression” value with cancer stem cells was “inhibition”. For the same compound, the “effect on lung cancer stem cells” value in the series on lung cancer stem cells was “induces apoptosis and inhibits metastasis without harming the normal cells”. The CC50 in series [3] was > 100 µM. The Toxicity entry in series [4] (10 mg/kg IV) is “No toxicity was observed”. Besides, in series [4] (1, 2, and 24 h after dosing), the “tissue-to plasma ratio in the hippocampus and brain” value is “increased significantly and continuously”. Also, the body weight entry in series [4] (7-day period after administration) is “no change”. For the same compound, the tissue distribution entry in series [4] (intravenous administration) is recorded as “widely distributed in several tissues”. Also, in series [4] (mouse, in vivo), the “absorbed or distributed to the vital organs” value was “approximately 98%” and the “excreted in either urine or feces” value is recorded as “less than 2%”. Further, the “time Compound I was detected in most organs” value in series [4] (not in the femur and kidney) is on record as “Up to 72 h”. For the same compound, in series [4] (throughout the study period), the “signs of discomfort, cardiovascular or respiratory disorders” value is “No signs of discomfort or any cardiovascular or respiratory disorders were observed”. Besides, in series [4] (setting [6]), the “increase in the area under the curve (AUC)” value is given as 28 fold and the “increase in the maximum plasma concentration (Cmax)” value turned out to be 29 fold. The treatment related death entry in series [5] (acute, 14-day observation, both sexes) is on record as “no treatment related death was observed”. Further, the LD50 at 14 days in series [5] (both sexes, mouse, in vivo, oral, read-out: median lethal dose (LD50)) is > 2000 mg/kg. For the same compound, in series [5] (both, mouse, in vivo, 14 days), the GHS classification entry is “Category 5”. Also, the CC50 in the series “in vitro” was > 15 µM.
